Here are results for three substances from US20260241026A1, “THERAPEUTIC METHOD FOR LOW-DRUG-SENSITIVITY CANCERS BY ADMINISTRATION OF ANTI-MUC1 ANTIBODY-DRUG CONJUGATE” (priority 2023, published 2026).

For experiment [1], the system named is lung cancer PDX model (NIBIO-NS1). The experiment can be described thus: Antitumor test in lung cancer patient-derived xenograft model NIBIO-NS1. Format: in vivo, female nude mice. The source says: NIBIO-NS1 was obtained as a lung cancer PDX model from the National Institute of Biomedical Innovation. A frozen tumor section of NIBIO-NS1 was thawed and subcutaneously transplanted to 5-week old female NSG mice (NOD. Cg-Prkdc Il2rg<tm1Wjl>/SzJ: purchased from Jackson Laboratory Japan, Inc.) using a trocar. Grown tumor was collected, cut into small pieces, and transplanted again to female nude mice (CAnN. Cg-Foxn1nu/CrlCrlj: purchased from Jackson Laboratory Japan, Inc.) using a trocar, followed by extended growth.
The female nude mice with transplanted NIBIO-NS1 were grouped 10 days after transplantation when their average tumor volume became about 157 mm^3. […] Six mice per group were used in groups 1 and 2, and 12 mice were used in group 3.

For experiment [2], the system named is bladder cancer PDX model (NIBIO-K071). The experiment can be described thus: Antitumor test in bladder cancer patient-derived xenograft model NIBIO-K071. The class given is in vivo, female nude mice. The source says: NIBIO-[…] was obtained as a bladder cancer patient-derived xenograft model (PDX model) from the National Institute of Biomedical Innovation. A frozen tumor section of NIBIO-[…] was thawed and subcutaneously transplanted to 4- to 6-week old female NSG mice (NOD. Cg-Prkdc Il2rg<tm1Wjl>/SzJ: purchased from Charles River Laboratories Japan, Inc.) using a trocar. Grown tumor was collected, cut into small pieces, and transplanted again to female NSG mice or female nude mice (CAnN. Cg-Foxn1nu/CrlCrlj: purchased from Charles River Laboratories Japan, Inc.) using a trocar, followed by extended growth. TA-MUC1-, Nectin-4-, and TROP2-positive findings were confirmed in the tumor of this model by immunohistochemical staining (IHC). An estimated tumor volume (ETV) was calculated as described below. Estimated tumor volume (volume,mm^3)=Major axis (mm)×Minor axis (mm)^2/2 The female nude mice with transplanted NIBIO-[…] were grouped 25 days after transplantation when their average tumor volume became about 200 mm^3. […] ABS buffer was administered to a Vehicle administration group. Six mice per group were used in all the groups. After initial administration, body weights and tumor sizes were measured twice a week, and estimated tumor volumes were calculated.
Background: A xenograft is tissue or cells of one species grown in another, often human tumour cells in immunodeficient mice.

Experiment [3] relates to human breast cancer cell line HCC70. The experiment can be described thus: Antitumor test in model with transplanted breast cancer cell line HCC70 (Example 3). The class given is in vivo, female nude mouse. On the procedure:
The mice were grouped 18 days after transplantation when their average tumor volume became about 165 mm^3. […] ABS buffer was administered to a Vehicle administration group. Six mice per group were used in all the groups.

Setting [4] is: 10 mg/kg, QW × two doses (Days 0, 7).
Setting [5] is: Day 21, 10 mg/kg, QW × 2, intravenous.

On to “datopotamab deruxtecan [TROP2-DXd ADC, reference compound]”, for which the “tumor course after regrouping of the TROP2-DXd ADC administration group” value in experiment [1] (10 mg/kg on Day 11 to tumors pre-treated with TROP2-DXd ADC, up to Day 31 (TA-MUC1-DXd ADC) or Day 21 (TROP2-DXd ADC)) is listed as “grew continuously”. Further, in experiment [1] (Day 11, 10 mg/kg on Day 0, NIBIO-NS1), the tumor regression effect entry is “no tumor regression”. Further, in experiment [1] (Day 11, 10 mg/kg, Day 0, intravenous, NIBIO-NS1), the “ETV (mm^3) Mean” value was 453 mm^3.

Consider “enfortumab vedotin [Nectin-4-MMAE ADC, reference compound]”, for which the tumor regression result in experiment [2] (3 mg/kg, QW × three doses (Days 0, 7, 14)) is given as “did not reach tumor regression”. Moreover, in experiment [2] (Day 21, 3 mg/kg, QW × 3, intravenous), the “ETV (mm^3) Mean” value was 772 mm^3.

As for “sacituzumab govitecan [TROP2-SN38 ADC, reference compound]”, the tumor regression entry in experiment [2] (setting [4]) was “did not reach tumor regression”; in experiment [3] (setting [4]), “no tumor regression”. The figures for the “ETV (mm^3) Mean” value in experiment [2] (setting [5]) and in experiment [3] (setting [5]) were 383 mm^3 and 361 mm^3, respectively.
